target: T1, human HDAC6 enzyme (Homo sapiens, UniProt Q9UBN7); assay: Fluorescence-based enzyme activity assay; type: biochemical; conditions: substrate with fluorescent peptide of p53 residues 379-382, 30°C for 1 hour
T1 sequence (Q9UBN7 1-1215): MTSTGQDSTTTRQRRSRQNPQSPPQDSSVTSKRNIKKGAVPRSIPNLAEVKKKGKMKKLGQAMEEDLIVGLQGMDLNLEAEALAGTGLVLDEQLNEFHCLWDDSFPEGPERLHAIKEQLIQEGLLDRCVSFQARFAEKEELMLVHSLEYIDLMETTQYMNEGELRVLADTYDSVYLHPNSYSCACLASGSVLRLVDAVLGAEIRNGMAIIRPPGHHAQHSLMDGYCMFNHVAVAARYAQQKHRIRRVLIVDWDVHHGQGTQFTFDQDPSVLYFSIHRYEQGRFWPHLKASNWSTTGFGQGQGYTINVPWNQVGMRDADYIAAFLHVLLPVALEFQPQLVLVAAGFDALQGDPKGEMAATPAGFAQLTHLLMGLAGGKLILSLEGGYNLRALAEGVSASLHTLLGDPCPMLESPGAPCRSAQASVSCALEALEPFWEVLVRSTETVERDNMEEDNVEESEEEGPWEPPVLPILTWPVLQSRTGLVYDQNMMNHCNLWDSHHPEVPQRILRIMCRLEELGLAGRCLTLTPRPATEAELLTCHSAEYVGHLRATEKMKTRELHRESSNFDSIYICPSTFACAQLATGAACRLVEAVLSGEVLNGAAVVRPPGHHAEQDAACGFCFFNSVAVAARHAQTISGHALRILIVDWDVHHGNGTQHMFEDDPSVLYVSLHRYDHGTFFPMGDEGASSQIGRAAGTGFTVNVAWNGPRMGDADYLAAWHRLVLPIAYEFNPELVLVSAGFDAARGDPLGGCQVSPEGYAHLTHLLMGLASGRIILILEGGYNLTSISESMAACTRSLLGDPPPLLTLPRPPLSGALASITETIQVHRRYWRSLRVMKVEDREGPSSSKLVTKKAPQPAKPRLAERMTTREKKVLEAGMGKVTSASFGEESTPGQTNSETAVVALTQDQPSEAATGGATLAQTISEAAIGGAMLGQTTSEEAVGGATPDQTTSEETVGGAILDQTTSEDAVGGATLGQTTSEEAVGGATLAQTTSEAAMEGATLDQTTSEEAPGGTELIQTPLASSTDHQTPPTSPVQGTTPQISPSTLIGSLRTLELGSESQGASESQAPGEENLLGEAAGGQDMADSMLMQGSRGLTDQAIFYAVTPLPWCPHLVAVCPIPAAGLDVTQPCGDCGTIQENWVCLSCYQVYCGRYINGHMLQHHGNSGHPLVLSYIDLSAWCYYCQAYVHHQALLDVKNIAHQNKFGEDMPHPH
Protocol: Experimental Example 1: Fluorescence-based enzyme activity assay
In order to measure the inhibitory effect of the compounds on the activity of histone deacetylase 6 (HDAC6), an enzyme activity assay was performed to evaluate the enzyme activity by reacting the human HDAC6 enzyme with a substrate to which a fluorescent peptide of p53 residues 379-382 was attached. The test compounds were dissolved in 100% DMSO at a concentration of 10 mM to prepare a stock solution. A starting concentration of 30 µM was prepared from the stock solution, followed by 1/3 serial dilutions to prepare the test buffer solution. Trichostatin A (TSA)-which is the reference compound used to confirm the validity of the experiment-was serially diluted by 1/3 with the test buffer solution, starting from the highest concentration of 1 µM. To react the test compounds and TSA prepared in the test buffer with the HDAC6 enzyme, they were dispensed into a 96-well black plate and spin-down of the plate was performed. Then, the reaction was carried out at room temperature for 10 minutes. After 10 minutes, the substrate was dispensed, and the plate was sealed. The reaction was carried out at 30°C for 1 hour under light-blocking conditions. Fluorescence values were measured using a plate reader (wavelength: excitation/emission = 360/460 nm). The fluorescence measurements were normalized to the HDAC6 enzyme-treated group as 100% and the untreated group as 0%, respectively. […]

| SMILES | IC50 [nM] |
| --- | --- |
| O=c1cc(-c2nnc(C(F)F)o2)ccn1CC#Cc1ccccc1 [Example 1, 4-(5-(difluoromethyl)-1,3,4-oxadiazol-2-yl)-1-(3-phenylprop-2-yn-1-yl)pyridin-2(1H)-one] | < 100 |
| O=c1cc(-c2nnc(C(F)F)o2)ccn1CC#Cc1ccncc1 [Example 8, 4-(5-(difluoromethyl)-1,3,4-oxadiazol-2-yl)-1-(3-(pyridin-4-yl)prop-2-yn-1-yl)pyridin-2(1H)-one] | < 100 |
| O=c1cc(-c2nnc(C(F)F)o2)ccn1CC#Cc1ccc(F)cc1 [Example 11, 4-(5-(difluoromethyl)-1,3,4-oxadiazol-2-yl)-1-(3-(4-fluorophenyl)prop-2-yn-1-yl)pyridin-2(1H)-one] | < 100 |
| O=c1cc(-c2nnc(C(F)F)o2)ccn1CC#Cc1ccccc1F [Example 13, 4-(5-(difluoromethyl)-1,3,4-oxadiazol-2-yl)-1-(3-(2-fluorophenyl)prop-2-yn-1-yl)pyridin-2(1H)-one] | < 100 |
| O=c1cc(-c2nnc(C(F)F)o2)ccn1CC#Cc1ccc(Cl)cc1 [Example 14, 1-(3-(4-chlorophenyl)prop-2-yn-1-yl)-4-(5-(difluoromethyl)-1,3,4-oxadiazol-2-yl)pyridin-2(1H)-one] | < 100 |
| COc1cccc(C#CCn2ccc(-c3nnc(C(F)F)o3)cc2=O)c1 [Example 21, 4-(5-(difluoromethyl)-1,3,4-oxadiazol-2-yl)-1-(3-(3-methoxyphenyl)prop-2-yn-1-yl)pyridin-2(1H)-one] | < 100 |
| O=c1cc(-c2nnc(C(F)F)o2)ccn1CC#Cc1cccc(Cl)n1 [Example 22, 1-(3-(6-chloropyridin-2-yl)prop-2-yn-1-yl)-4-(5-(difluoromethyl)-1,3,4-oxadiazol-2-yl)pyridin-2(1H)-one] | < 100 |
| Cc1cncc(C#CCn2ccc(-c3nnc(C(F)F)o3)cc2=O)c1 [Example 29, 4-(5-(difluoromethyl)-1,3,4-oxadiazol-2-yl)-1-(3-(5-methylpyridin-3-yl)prop-2-yn-1-yl)pyridin-2(1H)-one] | < 100 |
| O=c1cc(-c2nnc(C(F)F)o2)ccn1CC#Cc1cccc(Cl)c1F [Example 33, 1-(3-(3-chloro-2-fluorophenyl)prop-2-yn-1-yl)-4-(5-(difluoromethyl)-1,3,4-oxadiazol-2-yl)pyridin-2(1H)-one] | < 100 |
| O=c1cc(-c2nnc(C(F)F)o2)ccn1CC#Cc1ccc(F)c(Cl)c1 [Example 34, 1-(3-(3-chloro-4-fluorophenyl)prop-2-yn-1-yl)-4-(5-(difluoromethyl)-1,3,4-oxadiazol-2-yl)pyridin-2(1H)-one] | < 100 |
| O=c1cc(-c2nnc(C(F)F)o2)ccn1CC#Cc1cc(F)cc(Cl)c1 [Example 35, 1-(3-(3-chloro-5-fluorophenyl)prop-2-yn-1-yl)-4-(5-(difluoromethyl)-1,3,4-oxadiazol-2-yl)pyridin-2(1H)-one] | < 100 |
| O=c1cc(-c2nnc(C(F)F)o2)ccn1CC#Cc1ccc2scnc2c1 [Example 40, 1-(3-(benzo[d]thiazol-5-yl)prop-2-yn-1-yl)-4-(5-(difluoromethyl)-1,3,4-oxadiazol-2-yl)pyridin-2(1H)-one] | 100 to 500 |
| Cc1nc2ccc(C#CCOc3cc(-c4nnc(C(F)F)o4)ccn3)cc2s1 [Example 41] | 500 to 1000 |
| O=c1cc(-c2nnc(C(F)F)o2)ccn1CC#Cc1ccsc1 [Example 43, 4-(5-(difluoromethyl)-1,3,4-oxadiazol-2-yl)-1-(3-(thiophen-3-yl)prop-2-yn-1-yl)pyridin-2(1H)-one] | < 100 |

Continued, values first:

| IC50 [nM] | SMILES |
| --- | --- |
| 500 to 1000 | O=c1cc(-c2noc(C(F)(F)F)n2)ccn1CC#Cc1ccccc1 [Example 2, 1-(3-phenylprop-2-yn-1-yl)-4-(5-(trifluoromethyl)-1,2,4-oxadiazol-3-yl)pyridin-2(1H)-one] |
| 100 to 500 | O=c1cc(-c2noc(C(F)(F)F)n2)ccn1CC#Cc1ccncc1 [Example 3, 1-(3-(pyridin-4-yl)prop-2-yn-1-yl)-4-(5-(trifluoromethyl)-1,2,4-oxadiazol-3-yl)pyridin-2(1H)-one] |
| 100 to 500 | O=c1cc(-c2noc(C(F)(F)F)n2)ccn1CC#Cc1cccnc1 [Example 4, 1-(3-(pyridin-3-yl)prop-2-yn-1-yl)-4-(5-(trifluoromethyl)-1,2,4-oxadiazol-3-yl)pyridin-2(1H)-one] |
| 100 to 500 | O=c1cc(-c2noc(C(F)(F)F)n2)ccn1CC#Cc1ccccn1 [Example 5, 1-(3-(pyridin-2-yl)prop-2-yn-1-yl)-4-(5-(trifluoromethyl)-1,2,4-oxadiazol-3-yl)pyridin-2(1H)-one] |
| 500 to 1000 | O=c1cc(-c2noc(C(F)(F)F)n2)ccn1CC#Cc1ccccc1F [Example 6, 1-(3-(2-fluorophenyl)prop-2-yn-1-yl)-4-(5-(trifluoromethyl)-1,2,4-oxadiazol-3-yl)pyridin-2(1H)-one] |
| < 100 | O=c1cc(-c2nnc(C(F)F)o2)ccn1CC#Cc1cccnc1 [Example 9, 4-(5-(difluoromethyl)-1,3,4-oxadiazol-2-yl)-1-(3-(pyridin-3-yl)prop-2-yn-1-yl)pyridin-2(1H)-one] |
| < 100 | O=c1cc(-c2nnc(C(F)F)o2)ccn1CC#Cc1ccccn1 [Example 10, 4-(5-(difluoromethyl)-1,3,4-oxadiazol-2-yl)-1-(3-(pyridin-2-yl)prop-2-yn-1-yl)pyridin-2(1H)-one] |
| < 100 | O=c1cc(-c2nnc(C(F)F)o2)ccn1CC#Cc1cccc(F)c1 [Example 12, 4-(5-(difluoromethyl)-1,3,4-oxadiazol-2-yl)-1-(3-(3-fluorophenyl)prop-2-yn-1-yl)pyridin-2(1H)-one] |
| < 100 | O=c1cc(-c2nnc(C(F)F)o2)ccn1CC#Cc1ccccc1Cl [Example 16, 1-(3-(2-chlorophenyl)prop-2-yn-1-yl)-4-(5-(difluoromethyl)-1,3,4-oxadiazol-2-yl)pyridin-2(1H)-one] |
| < 100 | CS(=O)(=O)c1cccc(C#CCn2ccc(-c3nnc(C(F)F)o3)cc2=O)c1 [Example 32, 4-(5-(difluoromethyl)-1,3,4-oxadiazol-2-yl)-1-(3-(3-(methylsulfonyl)phenyl)prop-2-yn-1-yl)pyridin-2(1H)-one] |
| < 100 | Cc1ncc(C#CCn2ccc(-c3nnc(C(F)F)o3)cc2=O)[nH]1 [Example 42, 4-(5-(difluoromethyl)-1,3,4-oxadiazol-2-yl)-1-(3-(2-methyl-1H-imidazol-5-yl)prop-2-yn-1-yl)pyridin-2(1H)-one] |

— patent EP4685143A1 (Vivozon,Inc., priority 2023, dated 2024)
